Key:
[1] = test system: RUP41 transcript in neonatal rat ventricular myocytes (NRVMs); test: RT-PCR of RUP41 transcript in NRVMs treated with hypertrophic agents; assay type: cell-based; conditions: 24 hours after addition to media; phenylephrine 100 μM, newborn calf serum 10%
Procedure: Total RNA isolated from NRVMs as described above was used as a template for generation of reverse transcribed DNA (RT-DNA) using the RT for PCR kit (Becton Dickenson) according to manufacturers instructions. RUP41 expression was detected in RT-DNA samples by PCR. PCR conditions were 96° C. for 2 min, followed by 30 cycles of 96° C. for 30 sec, 55° C. for 30 sec, and 72° C. for 2 min, followed by 72° C. for 10 min. 20 μl of the reaction was loaded onto 1.5% agarose gel to analyze the RT-PCR products.

[2] = test system: RUP41 mRNA in NRVMs; test: Northern blot of RUP41 mRNA in NRVMs treated with hypertrophic agents; conditions: 24 hour treatment; PE 100 μM, PMA 100 nM, PGF2α 1 μM, NCS 10%

| Compound | RUP41 transcript levels (RT-PCR) [1] | RUP41 mRNA expression (Northern blot) [2] |
| --- | --- | --- |
| CNC[C@H](O)c1cccc(O)c1 [phenylephrine] | drop dramatically | decreased level |
| CCCCCCCCCCCCCC(=O)O[C@@H]1[C@@H](C)[C@@]2(O)[C@@H](C=C(CO)C[C@]3(O)C(=O)C(C)=C[C@@H]23)[C@@H]2C(C)(C)[C@]12OC(C)=O [phorbol 12-myristate 13-acetate] | – | decreased level |
| prostaglandin F2α | – | decreased level |

Source: patent publication US7611832B2, “Human G protein-coupled receptor and modulators thereof for the treatment of ischemic heart disease and congestive heart failure” (Arena Pharmaceuticals, Inc., priority 2002, dated 2009)
